Calls of active or inactive are those of the source. The calls are words filed in the database; no cut-off is given here.
How the values were obtained:
[1] = Toxicity in immune-competent Sprague-Dawley rat assessed as change in eosinophil at 1 to 10 mg/kg, po administered twice a week for 5 weeks; type: organism-based; conditions: in vivo, 840 h, dose 1-10 mg/kg
[2] = Drug concentration in SCID mouse plasma at 1 mg/kg, po measured at 6 hrs by LC-MS/MS analysis; type: ADME, organism-based
Cytochrome P450 3A4 = Cytochrome P450 3A4 (Homo sapiens, UniProt P08684); test: Inhibition of CYP3A4 (unknown origin) using testosterone as substrate preincubated with compound for 5 mins followed by NADPH addition and measured after 20 mins by LC-MS/MS analysis; type: ADME
Cytochrome P450 2C9 = Cytochrome P450 2C9 (Homo sapiens, UniProt P11712); test: Inhibition of CYP2C9 (unknown origin) preincubated with compound for 5 mins followed by NADPH addition and measured after 10 mins by LC-MS/MS analysis; type: ADME
[3] = Plasma protein binding in monkey by LC-MS analysis; type: ADME, cell-free, Macaca mulatta; conditions: rhesus monkey, read-out: PPB (converted)
[4] = Drug distribution in SCID mouse liver at 0.3 mg/kg, po measured at 24 hrs by LC-MS/MS analysis; type: ADME, organism-based; conditions: read-out: Ct
[5] = target: T1, Protein cereblon/histone acetyltransferase (Rattus norvegicus, UniProt Q56AP7+Q91XT0); test: PROTAC activity at p300/CRBN in rat RG2 cells assessed as induction of p300 degradation; type: cell-based
T1 sequence (Q56AP7 whole entry): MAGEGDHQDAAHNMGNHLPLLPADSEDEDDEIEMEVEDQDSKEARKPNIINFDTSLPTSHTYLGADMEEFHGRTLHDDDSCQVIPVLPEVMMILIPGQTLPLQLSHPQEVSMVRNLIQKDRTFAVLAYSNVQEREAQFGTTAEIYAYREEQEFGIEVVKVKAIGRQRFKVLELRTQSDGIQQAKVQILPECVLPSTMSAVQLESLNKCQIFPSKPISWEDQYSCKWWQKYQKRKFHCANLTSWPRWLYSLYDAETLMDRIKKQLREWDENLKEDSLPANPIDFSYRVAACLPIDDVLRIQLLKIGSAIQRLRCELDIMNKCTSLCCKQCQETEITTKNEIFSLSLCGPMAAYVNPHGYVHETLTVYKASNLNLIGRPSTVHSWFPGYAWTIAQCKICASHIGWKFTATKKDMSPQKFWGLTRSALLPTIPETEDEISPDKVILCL
T1 sequence (Q91XT0 whole entry): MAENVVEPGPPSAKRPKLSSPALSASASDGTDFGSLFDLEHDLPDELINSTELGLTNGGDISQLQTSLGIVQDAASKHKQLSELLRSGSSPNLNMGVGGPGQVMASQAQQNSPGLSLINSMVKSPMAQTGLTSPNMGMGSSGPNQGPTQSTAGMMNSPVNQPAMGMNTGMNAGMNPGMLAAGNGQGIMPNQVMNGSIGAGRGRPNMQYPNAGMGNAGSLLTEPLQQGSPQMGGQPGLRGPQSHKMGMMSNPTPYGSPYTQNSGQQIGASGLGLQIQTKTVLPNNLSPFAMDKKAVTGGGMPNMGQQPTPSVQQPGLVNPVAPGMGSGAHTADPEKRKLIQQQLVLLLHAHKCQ

[6] = Drug distribution in Sprague-Dawley rat liver at 3 mg/kg, po measured at 1 hr by LC-MS/MS analysis; type: ADME, organism-based; conditions: read-out: Ct
[7] = Half life in ICR mouse at 3 mg/kg, po measured upto 24 hrs by LC/MS-MS analysis; type: ADME, organism-based; conditions: in vivo
[8] = Drug distribution in Sprague-Dawley rat heart at 3 mg/kg, po measured at 6 hrs by LC-MS/MS analysis; type: ADME, organism-based; conditions: read-out: Ct
[9] = Drug distribution in SCID mouse liver at 3 mg/kg, po measured at 1 hr by LC-MS/MS analysis; type: ADME, organism-based; conditions: read-out: Ct
CWR22R [10] = test: Antitumor activity against human 22Rv1 cells xenografted in SCID mouse assessed as tumor growth inhibition at 0.3 mg/kg, po administered 5 times a week for 3 weeks; type: functional; conditions: 22Rv1, 504 h, read-out: TGI
[11] = Toxicity in immune-competent Sprague-Dawley rat assessed as change in alanine aminotransferase level at 1 to 10 mg/kg, po administered twice a week for 5 weeks; type: organism-based; conditions: in vivo, 840 h, dose 1-10 mg/kg
[12] = Drug distribution in Sprague-Dawley rat heart at 10 mg/kg, po measured at 6 hrs by LC-MS/MS analysis; type: ADME, organism-based; conditions: read-out: Ct
CWR22R [13] = test: Antitumor activity against human 22Rv1 cells xenografted in SCID mouse assessed as reduction in BRD2 level in tumor at 1 to 3 mg/kg, po measured at 6 to 24 hrs by Western blotting analysis; type: functional, organism-based; conditions: dose 1-3 mg/kg, time 6-24 hrs
CWR22R [14] = test: Antiproliferative activity against human 22Rv1 cells assessed as cell growth inhibition incubated for 4 days by celtiter-glo luminescent assay; conditions: 22Rv1, 96 h
[15] = Toxicity in immune-competent Sprague-Dawley rat assessed as change in basophil at 1 to 10 mg/kg, po administered twice a week for 5 weeks; type: organism-based; conditions: in vivo, 840 h, dose 1-10 mg/kg
[16] = Toxicity in SCID mouse xenografted with human 22Rv1 cells assessed as loss of body weight at 0.3 to 3 mg/kg, po administered upto 3 weeks; type: organism-based, CWR22R; conditions: in vivo, 504 h, dose 0.3-3 mg/kg
CWR22R [17] = test: Antitumor activity against human 22Rv1 cells xenografted in SCID mouse assessed as reduction in BRD3 level in tumor at 1 to 3 mg/kg, po measured at 6 to 24 hrs by Western blotting analysis; type: functional, organism-based; conditions: dose 1-3 mg/kg, time 6-24 hrs
[18] = Drug distribution in SCID mouse spleen at 1 mg/kg, po measured at 24 hrs by LC-MS/MS analysis; type: ADME, organism-based; conditions: read-out: Ct
[19] = Drug distribution in Sprague-Dawley rat heart at 3 mg/kg, po measured at 1 hr by LC-MS/MS analysis; type: ADME, organism-based; conditions: read-out: Ct
[20] = Metabolic stability in mouse plasma assessed as half life measured upto 120 mins by LC-MS/MS analysis; type: ADME, cell-free
Cytochrome P450 1A2 = target: T2, Cytochrome P450 1A2 (Homo sapiens, UniProt P05177); test: Inhibition of CYP1A2 (unknown origin) preincubated with compound for 5 mins followed by NADPH addition and measured after 5 mins by LC-MS/MS analysis; type: ADME
T2 sequence (P05177 whole entry): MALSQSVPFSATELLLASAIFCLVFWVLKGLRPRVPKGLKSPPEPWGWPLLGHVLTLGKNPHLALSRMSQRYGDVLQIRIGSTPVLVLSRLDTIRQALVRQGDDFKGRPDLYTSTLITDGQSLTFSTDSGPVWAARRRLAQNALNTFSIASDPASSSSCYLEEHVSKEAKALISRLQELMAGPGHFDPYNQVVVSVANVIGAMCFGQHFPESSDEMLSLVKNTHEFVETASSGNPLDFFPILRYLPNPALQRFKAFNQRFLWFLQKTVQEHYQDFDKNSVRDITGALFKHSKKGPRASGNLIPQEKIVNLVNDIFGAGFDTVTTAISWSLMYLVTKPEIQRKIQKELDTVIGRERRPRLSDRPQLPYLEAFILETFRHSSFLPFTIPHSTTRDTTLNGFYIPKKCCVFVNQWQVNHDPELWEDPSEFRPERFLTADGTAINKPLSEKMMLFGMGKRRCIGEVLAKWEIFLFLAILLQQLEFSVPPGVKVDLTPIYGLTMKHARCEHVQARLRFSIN

Chain of Cytochrome P450 3A4 (P08684 whole entry): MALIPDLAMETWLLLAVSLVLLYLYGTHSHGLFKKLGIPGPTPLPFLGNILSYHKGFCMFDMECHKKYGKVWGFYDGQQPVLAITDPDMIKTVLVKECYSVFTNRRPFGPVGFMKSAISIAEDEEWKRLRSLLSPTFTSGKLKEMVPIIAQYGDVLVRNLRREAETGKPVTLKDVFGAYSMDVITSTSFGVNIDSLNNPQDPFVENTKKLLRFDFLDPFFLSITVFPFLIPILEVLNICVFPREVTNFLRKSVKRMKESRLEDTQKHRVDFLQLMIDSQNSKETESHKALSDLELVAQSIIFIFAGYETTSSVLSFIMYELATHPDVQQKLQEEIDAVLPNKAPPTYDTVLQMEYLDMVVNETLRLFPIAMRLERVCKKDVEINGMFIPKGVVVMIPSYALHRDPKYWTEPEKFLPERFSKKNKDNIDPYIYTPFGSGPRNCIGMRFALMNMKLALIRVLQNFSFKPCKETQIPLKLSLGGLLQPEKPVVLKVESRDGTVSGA
Chain of Cytochrome P450 2C9 (P11712 whole entry): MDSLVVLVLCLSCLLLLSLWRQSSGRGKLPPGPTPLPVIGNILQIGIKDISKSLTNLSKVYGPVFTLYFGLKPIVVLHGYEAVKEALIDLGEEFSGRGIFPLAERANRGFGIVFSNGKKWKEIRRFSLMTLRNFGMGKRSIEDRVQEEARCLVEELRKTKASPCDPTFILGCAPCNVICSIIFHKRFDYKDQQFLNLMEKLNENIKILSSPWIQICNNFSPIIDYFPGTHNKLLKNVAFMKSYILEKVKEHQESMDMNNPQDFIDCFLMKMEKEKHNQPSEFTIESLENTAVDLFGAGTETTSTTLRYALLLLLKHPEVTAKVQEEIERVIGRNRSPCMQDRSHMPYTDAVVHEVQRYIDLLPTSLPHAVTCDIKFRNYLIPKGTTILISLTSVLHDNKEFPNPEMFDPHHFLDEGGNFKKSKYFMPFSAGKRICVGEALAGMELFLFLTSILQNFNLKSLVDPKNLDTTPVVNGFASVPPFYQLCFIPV

concentration at 6 h [2]: 14.1 ng/mL
IC50 (Cytochrome P450 3A4): > 10000 nM
IC50 (Cytochrome P450 2C9): > 10000 nM
fraction unbound [3]: 0.009
concentration at 24 h [4]: 5.6 ng/mL
DC50 [5]: 0.3 nM
concentration at 1 h [6]: 978 ng/g
half-life [7]: 3.1 h
concentration at 6 h [8]: 26.4 ng/g
concentration at 1 h [9]: 3300 ng/mL
concentration at 6 h [12]: 83 ng/g
concentration at 24 h [18]: 2.8 ng/mL
concentration at 1 h [19]: 246 ng/g
half-life [20]: > 2 h
IC50 (Cytochrome P450 1A2): > 10000 nM
SMILES: CC(=O)N1CCc2c(c(N3CCCc4cc(-c5cnn(C)c5)c(C(F)F)cc43)nn2[C@H]2CC[C@H](CN3Cc4cc5c(cc4C3)C(=O)N(C3CCC(=O)NC3=O)C5=O)CC2)C1 (stereo partly drawn)
Activity [1]: Non-Toxic
inhibition in vivo at 0.3 mg/kg (CWR22R [10]): 56%
Activity [11]: Non-Toxic
Activity (CWR22R [13]): Active
IC50 (CWR22R [14]): 3.7 nM
Activity [15]: Non-Toxic
Activity [16]: Non-Toxic
Activity (CWR22R [17]): Active
